Experimental data from patent US9926318B2, “Tetracyclic autotaxin inhibitors” (PharmAkea, Inc., priority 2013, dated 2018).

Experiments:
human autotaxin (ATX) = human autotaxin (ATX) (Homo sapiens (Human), UniProt Q13822); assay: Human autotaxin assay (choline release from LPC, Hep3B conditioned media); type: biochemical; settings: concentrated conditioned media from Hep3B cells, LPC substrate
Protocol: ATX activity is assayed in concentrated conditioned media from Hep3B human hepatocellular carcinoma cells by measuring the amount of choline released from the substrate, lysophosphatidylcholine (LPC) as it is cleaved to LPA. Conditioned media is collected from confluent Hep3B cells and concentrated 20-fold using Centriprep-30 filter devices (Millipore). […] 100 μl of a color mix containing 4.5 mM 4-aminoantipyrine, 2.7 mM N-ethyl-N-(2-hydroxy-3-sulfopropyl)-m-toluidine, 21 units/ml horseradish peroxidase and 3 units/ml choline oxidase in 50 mM Tris, pH 8, 4.5 mM MgCl2 is added and the incubation continued for 15 minutes at room temperature before reading the absorbance at 555 nm.

[1] = rat male reproductive tissue toxicity study; type: in vivo; settings: for decreases in the testes weight (as a percentage of body weight): dosed at 300 mpk PO for 5 days; for decreases in testes weight: rat male reproductive tissue toxicity study
Protocol: In some embodiments, male reproductive tissue toxicity can be assessed in suitable in vivo models. In some embodiments, male reproductive tissue toxicity is assessed by monitoring any decreases in the testes weight and/or epididymis weight.

Compound	IC50 (human autotaxin (ATX))	decreases in the testes weight (as a percentage of body weight) [1]	decreases in testes weight [1]
O=C(O)CCCN1C(=O)C2Cc3c(n(Cc4ccc(F)cc4)c4ccccc34)CN2C1=O (racemic) [Compound 1-1, 4-(6-(4-fluorobenzyl)-1,3-dioxo-11,11a-dihydro-1H-imidazo[1′,5′:1,6]pyrido[3,4-b]indol-2(3H,5H,6H)-yl)butanoic acid]	< 500 nM	no decreases in the testes weight	did not exhibit the same effects
O=C1NC(=O)N2Cc3c(c4ccccc4n3Cc3ccc(F)cc3)CC12 (racemic) [Compound 1-15, 6-(4-fluorobenzyl)-5,6,11,11a-tetrahydro-1H-imidazo[1′,5′:1,6]pyrido[3,4-b]indole-1,3(2H)-dione]	< 500 nM	no decreases in the testes weight	did not exhibit the same effects
O=C(O)CCN1C(=O)[C@@H]2Cc3c(n(Cc4ccc(F)cc4)c4ccccc34)CN2C1=O [Compound 1-5, (S)-3-(6-(4-fluorobenzyl)-1,3-dioxo-5,6,11,11a-tetrahydro-1H-imidazo[1′,5′:1,6]pyrido[3,4-b]indol-2(3H)-yl)propanoic acid]	–	–	undesired decreases in testes weight
